The results in this text go back to patent publication US11319298B2 (Merck Sharp & Dohme Corp., priority 2016, dated 2022).

The assay deals with T1, human M4 muscarinic acetylcholine receptor (Homo sapiens, UniProt P08173).
T1 construct: expressed in transfected cells; host or cells: CHO-K1
T1 sequence (P08173 1-479): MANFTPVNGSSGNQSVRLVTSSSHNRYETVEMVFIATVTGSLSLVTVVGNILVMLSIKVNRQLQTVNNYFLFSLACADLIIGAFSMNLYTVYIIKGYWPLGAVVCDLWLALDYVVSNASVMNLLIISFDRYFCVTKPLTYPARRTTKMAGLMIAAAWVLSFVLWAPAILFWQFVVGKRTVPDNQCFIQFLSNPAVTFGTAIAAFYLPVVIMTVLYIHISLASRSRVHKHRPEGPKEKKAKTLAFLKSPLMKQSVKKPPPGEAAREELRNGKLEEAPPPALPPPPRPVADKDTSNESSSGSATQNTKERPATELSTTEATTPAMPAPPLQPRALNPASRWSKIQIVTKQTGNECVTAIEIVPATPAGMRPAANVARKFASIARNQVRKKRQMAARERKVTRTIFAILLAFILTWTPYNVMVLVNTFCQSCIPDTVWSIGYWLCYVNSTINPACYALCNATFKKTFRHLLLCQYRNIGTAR
The assay can be described thus: human FLIPR-based M4 PAM assay, CHO-K1 cells stably transfected with human M4 receptor and chimeric G-protein Gαqi5. It is filed as cell-based. Conditions: inflection point (IP) of dose response curve; acetylcholine added at 20% of maximum response; CHO-K1 human M4/Gαqi5, FLIPR Tetra. In short, it runs like this:
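CHO-K1 cells were loaded with calcium dye at 37 °C for ~1 h. Fluorescence (ex 470–495/em 515–575 nm) was read for 4 min after test compound at increasing concentrations, then 3.5 min after acetylcholine at an EC20; sometimes a third addition at EC70 followed. The value is the inflection point of a 4-parameter logistic fit.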
For orientation: EC50 means the concentration that produces a half-maximal response. Compound `CCOC(=O)c1cc(C)c(N2CCC(Oc3ccc(OC)nc3)CC2)nn1` [Example 105A, ethyl 6-(4-((6-methoxypridin-3-yl)oxy)piperidin-1-yl)-5-methylpyridazine-3-carboxylate] returned an EC50 of 170 nM.
`Cc1ncc(C)c(N2CCC(Oc3cccnc3)CC2)n1` [Example 19, 2,5-dimethyl-4-(4-(pyridin-3-yloxy)piperidin-1-yl)pyrimidine] registered an EC50 of 2920 nM.
The value for `COc1ccc(OC2CCN(c3nc(C(=O)NC4CCc5ccncc5C4)nc(Cl)c3C)CC2)cn1` (centres unmarked) [Example 216, 4-chloro-6-(4-((6-methoxypyridin-3-yl)oxy)piperidin-1-yl)-5-methyl-N-(5,6,7,8-tetrahydroisoquinolin-7-yl)pyrimidine-2-carboxamide] was 997 nM; that for `COc1ccc(OC2CCN(c3ncnc(N4CCCC4)c3C)CC2)cn1` [Example 237, 4-(4-((6-methoxypyridin-3-yl)oxy)piperidin-1-yl)-5-methyl-6-(pyrrolidin-1-yl)pyrimidine] was 1820 nM.
The value for `Cc1c(Cl)nc(CO)nc1N1CCC(Oc2ccc3c(ccn3C)c2)CC1` [Example 29, (4-chloro-5-methyl-6-(4-((1-methyl-1H-indol-5-yl)oxy)piperidin-1-yl)pyrimidin-2-yl)methanol] was 126 nM; that for `CCc1ncnc(N2CCC(Oc3cccc(C#N)c3)CC2)c1C` [Example 261, 3-((1-(6-Ethyl-5-methylpyrimidin-4-yl)piperidin-4-yl)oxy)benzonitrile] was 425 nM; that for `COc1ncc(OC2CCN(c3nc(C)ncc3C)CC2)cc1F` [Example 74, 4-(4-((5-fluoro-6-methoxypyridin-3-yl)oxy)piperidin-1-yl)-2,5-dimethylpyrimidine] was 155 nM.
The value for `COc1ccc(OC2CCN(c3nnc(C(=O)N[C@H]4CCc5ccccc54)cc3C)CC2)cn1` [Example 173, N-[(1S)-2,3-dihydro-1H-inden-1-yl]-6-{4-[(6-methoxypyridin-3-yl)oxy]piperidin-1-yl}-5-methylpyridazine-3-carboxamide] was 552 nM; that for `COc1ccc(OC2CCN(c3nnc(C(=O)NC4CCc5ncccc5C4)cc3C)CC2)cn1` (centres unmarked) [Example 163, 6-{4-[(6-methoxypyridin-3-yl)oxy]piperidin-1-yl}-5-methyl-N-(5,6,7,8-tetrahydroquinolin-6-yl)pyridazine-3-carboxamide] was 325 nM; that for `COc1ccc(OC2CCN(c3ncnc(N4CCc5scnc5C4)c3C)CC2)cn1` [Example 229, 5-(6-(4-((6-methoxypyridin-3-yl)oxy)piperidin-1-yl)-5-methylpyrimidin-4-yl)-4,5,6,7-tetrahydrothiazolo[4,5-c]pyridine] was 807 nM.
`COc1ccc([C@@H](C)NC(=O)c2cc(C)c(N3CCC(Oc4ccc(OC)nc4)CC3)nn2)cc1` [Example 188, N-[(1R)-1-(4-methoxyphenyl)ethyl]-6-{4-[(6-methoxypyridin-3-yl)oxy]piperidin-1-yl}-5-methylpyridazine-3-carboxamide] yielded an EC50 of 1510 nM.
In the case of `COc1ccc(OC2CCN(c3nnc(C(=O)NCc4ccnnc4)cc3C)CC2)cn1` [Example 139, 6-{4-[(6-methoxypyridin-3-yl)oxy]piperidin-1-yl}-5-methyl-N-(pyridazin-4-ylmethyl)pyridazine-3-carboxamide] it was 177 nM.
The value for `CSc1ncc(C)c(N2CCC(Oc3cccnc3)CC2)n1` [Example 20, 5-methyl-2-(methylthio)-4-(4-(pyridin-3-yloxy)piperidin-1-yl)pyrimidine] was 3060 nM; that for `Cc1nc(C)c(C)c(N2CCC(Oc3cccc(C#N)c3)CC2)n1` [Example 103, 3-((1-(2,5,6-Trimethylpyrimidin-4-yl)piperidin-4-yl)oxy)benzonitrile] was 61 nM; that for `COc1ccc(OC2CCN(c3nc(C(=O)NCc4ccncc4Cl)nc(Cl)c3C)CC2)cn1` [Example 211, 4-chloro-N-((3-chloropyridin-4-yl)methyl)-6-(4-((6-methoxypyridin-3-yl)oxy)piperidin-1-yl)-5-methylpyrimidine-2-carboxamide] was 635 nM.
The value for `Cc1c(Cl)nc(CO)nc1N1CCC(Oc2cccc(S(C)(=O)=O)c2)CC1` [Example 42, (4-chloro-5-methyl-6-(4-(3-(methylsulfonyl)phenoxy)piepridin-1-yl)pyrimidin-2-yl)methanol] was 325 nM.
`COc1ccc(OC2CCN(c3ncnc(N4CC5CC4CO5)c3C)CC2)cn1` (centres unmarked) [Example 238, 5-(6-(4-((6-methoxypyridin-3-yl)oxy)piperidin-1-yl)-5-methylpyrimidin-4-yl)-2-oxa-5-azabicyclo[2.2.1]heptane] displayed an EC50 of 3060 nM. Against the preceding compound, the EC50 is about 9.4-fold higher.
The value for `COc1ccc(OC2CCN(c3nnc(C(=O)N[C@@H]4CCCc5ccccc54)cc3C)CC2)cn1` [Example 187, 6-{4-[(6-methoxypyridin-3-yl)oxy]piperidin-1-yl}-5-methyl-N-[(1R)-1,2,3,4-tetrahydronaphthalen-1-yl]pyridazine-3-carboxamide] was 1330 nM; that for `C=Cc1ncnc(N2CCC(Oc3cccc(C#N)c3)CC2)c1C` [Example 245, 3-((1-(5-methyl-6-vinylpyrimidin-4-yl)piperidin-4-yl)oxy)benzonitrile] was 484 nM.
The value for `COc1ccc(OC2CCN(c3nnc(C(=O)N[C@@H]4CCc5cccnc5C4)cc3C)CC2)cn1` [Example 126A, (R)-6-{4-[(6-methoxypyridin-3-yl)oxy]piperidin-1-yl}-5-methyl-N-(5,6,7,8-tetrahydroquinolin-7-yl)pyridazine-3-carboxamide] was 110 nM.
The value for `Cc1nnc(N2CCC(Oc3cccc(C#N)c3)CC2)c(C#N)c1C` [Example 11, 3-(4-(3-cyanophenoxy)piperidin-1-yl)-5,6-dimethylpyridazine-4-carbonitrile] was 1130 nM; that for `COc1ccc(OC2CCN(c3ncnc(NCCC(F)(F)F)c3C)CC2)cn1` [Example 239, 6-(4-((6-methoxypyridin-3-yl)oxy)piperidin-1-yl)-5-methyl-N-(3,3,3-trifluoropropyl)pyrimidin-4-amine] was 3200 nM.
On to `COc1ccc(OC2CCN(c3nc(C)nc(Cl)c3C)CC2)cc1` [Example 62, 4-chloro-6-(4-(4-methoxyphenoxy)piperidin-1-yl)-2,5-dimethylpyrimidine], for which the EC50 was determined as 94 nM.
In the case of `COc1ccc(OC2CCN(c3nnc(C(=O)OCc4ccncc4)cc3C)CC2)cn1` [Example 106A, Pyridin-4-ylmethyl 6-(4-((6-methoxypyridin-3-yl)oxy)piperidin-1-yl)-5-methylpyridazine-3-carboxylate] it was 85 nM; in that of `Cc1c(C#N)nc(CO)nc1N1CCC(Oc2ccc3c(c2)C(=O)OC3)CC1` [Example 260, 2-(hydroxymethyl)-5-methyl-6-(4-((3-oxo-1,3-dihydroisobenzofuran-5-yl)oxy)piperidin-1-yl)pyrimidine-4-carbonitrile], 2560 nM; in that of `COc1ccc(OC2CCN(c3nnc(C(=O)NC4CNC(=O)C4)cc3C)CC2)cn1` (centres unmarked) [Example 145, 6-{4-[(6-methoxypyridin-3-yl)oxy]piperidin-1-yl}-5-methyl-N-(5-oxopyrrolidin-3-yl)pyridazine-3-carboxamide], 194 nM.
